Experimental findings from article PMC7011995, “Steroids interfere with human carbonic anhydrase activity by using alternative binding mechanisms” (Journal of Enzyme Inhibition and Medicinal Chemistry, 2018) are described below.

Structures are written as SMILES. Read-outs that look alike come from different tables or passages of the source.

What all share (experiment): stopped-flow CO2 hydration assay, phenol red
What all share (assay type): biochemical

One assay addresses T1, hCA I (Homo sapiens, UniProt P00915).
T1 construct: gene CA1; recombinant, obtained in-house; cytosolic
From the text: stopped-flow CO2 hydration assay, phenol red on hCA I

For assay [1], the target named is T2, hCA IV (Homo sapiens, UniProt P22748).
T2 construct: gene CA4; recombinant, obtained in-house
The source says:
stopped-flow CO2 hydration assay, phenol red on hCA IV

Assay [2] deals with T3, hCA II (Homo sapiens, UniProt P00918).
T3 construct: gene CA2; recombinant, obtained in-house; cytosolic
From the text:
stopped-flow CO2 hydration assay, phenol red on hCA II

In assay [3] the target is T4, hCA IX (Homo sapiens, UniProt Q16790).
T4 construct: gene CA9; recombinant, obtained in-house; tumor-associated transmembrane isoform
The source says:
stopped-flow CO2 hydration assay, phenol red on hCA IX

In assay [4] the target is T2, hCA IV. The conditions noted are these: read-out: hCAI.
Assay [5] concerns the target T3, hCA II. The following applies: read-out: hCAI.
Assay [6] addresses T4, hCA IX. The conditions noted are these: read-out: hCAI.

T1 sequence (P00915 2-261): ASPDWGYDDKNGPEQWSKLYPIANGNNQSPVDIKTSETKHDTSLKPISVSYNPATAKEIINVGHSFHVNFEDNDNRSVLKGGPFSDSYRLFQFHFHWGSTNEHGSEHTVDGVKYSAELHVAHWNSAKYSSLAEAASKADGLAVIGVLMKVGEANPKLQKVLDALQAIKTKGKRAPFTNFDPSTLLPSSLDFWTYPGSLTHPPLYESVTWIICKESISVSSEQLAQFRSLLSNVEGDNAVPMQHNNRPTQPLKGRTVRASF
T2 sequence (P22748 19-284): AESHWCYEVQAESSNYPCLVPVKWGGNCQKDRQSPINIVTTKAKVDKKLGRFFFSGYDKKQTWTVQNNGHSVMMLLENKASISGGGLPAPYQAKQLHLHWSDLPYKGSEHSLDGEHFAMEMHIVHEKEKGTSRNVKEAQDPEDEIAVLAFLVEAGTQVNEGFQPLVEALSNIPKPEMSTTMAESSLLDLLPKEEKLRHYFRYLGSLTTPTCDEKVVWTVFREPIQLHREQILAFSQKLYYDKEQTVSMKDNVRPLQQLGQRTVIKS

Regarding `C[C@]12CC[C@H]3[C@@H](CCC4=CC(=O)CC[C@@]43C)[C@@H]1CC[C@@H]2O` [compound 13, Testosterone], the Ki at hCA I, on hCA IV [1], at hCA II [2] and at hCA IX [3] was over 100 µM in each case.

`C[C@]12CC[C@@H](O)C[C@@H]1CC[C@@H]1[C@@H]2CC[C@]2(C)C(=O)CC[C@@H]12` [compound 14, Androsterone]: the Ki at hCA I, at hCA IV [1], at hCA II [2] and at hCA IX [3] was over 100 µM throughout.

Consider `CC(=O)[C@H]1CC[C@H]2[C@@H]3CCC4=CC(=O)CC[C@]4(C)[C@H]3CC[C@]12C` [compound 17, Progesterone], for which the Ki at hCA I (read-out: hCAI), at hCA IV [4], at hCA II [5] and on hCA IX [6] was over 100 µM in each case.

`C[C@]12CC[C@H](O)CC1=CC[C@@H]1[C@@H]2CC[C@]2(C)C(=O)CC[C@@H]12` [compound 15, Trans-dehydroandrosterone]: the Ki on hCA I (read-out: hCAI), at hCA IV [4], at hCA II [5] and at hCA IX [6] was over 100 µM in each case.

As for `C[C@H](CCC(=O)O)[C@H]1CC[C@H]2[C@@H]3CC[C@@H]4C[C@H](O)CC[C@]4(C)[C@H]3CC[C@]12C` [compound 3, Lithocholic acid], the Ki on hCA I (read-out: hCAI) was over 100 µM; at hCA II [2] (read-out: hCA II), 64.5 µM; at hCA IX [3] (read-out: hCA IX) it was 70.2 µM; on hCA IV [4] it was over 100 µM.

`C[C@]12CC[C@@H]3c4ccc(O)cc4CC[C@H]3[C@@H]1CCC2=O` [compound 20, Estron]: the Ki at hCA I (read-out: hCAI) is over 100 µM; on hCA II [2] (read-out: hCA II), 50.8 µM; at hCA IX [3] (read-out: hCA IX) it was 71.4 µM; on hCA IV [4], over 100 µM.

For `C[C@H](CCC(=O)O)[C@H]1CC[C@H]2[C@@H]3[C@H](O)C[C@@H]4C[C@H](O)CC[C@]4(C)[C@H]3C[C@H](O)[C@]12C` [compound 2, Cholic acid], the Ki at hCA I (read-out: hCAI) is over 100 µM; on hCA II [2] (read-out: hCA II), 48.9 µM; at hCA IX [3] (read-out: hCA IX) it was 47.1 µM; on hCA IV [4] it was over 100 µM.

With `C[C@]12CCC(=O)C=C1CC[C@@H]1[C@@H]2[C@@H](O)C[C@@]2(C)[C@H]1CC[C@]2(O)C(=O)CO` [compound 21, Hydrocortisone], the Ki at hCA I (read-out: hCAI), at hCA IV [4], at hCA II [5] and on hCA IX [6] was over 100 µM in each case.

As for `C[C@]12CCC(=O)C[C@@H]1CC[C@@H]1[C@@H]2CC[C@]2(C)[C@@H](O)CC[C@@H]12` [compound 16, Androstanolone], the Ki on hCA I, at hCA IV [1], at hCA II [2] and at hCA IX [3] was over 100 µM each time.

With `C[C@H](CCC(=O)NCCS(=O)(=O)O)[C@H]1CC[C@H]2[C@@H]3[C@@H](O)C[C@@H]4C[C@H](O)CC[C@]4(C)[C@H]3CC[C@]12C` [compound 7, Tauroursodeoxycholic acid], the Ki at hCA I (read-out: hCAI) was over 100 µM; on hCA II [2] (read-out: hCA II), 82.9 µM; on hCA IX [3] (read-out: hCA IX), 42.9 µM; at hCA IV [4] it was over 100 µM.

Consider `C[C@@H]1CC[C@@]2(OC1)O[C@H]1C[C@H]3[C@@H]4CC=C5C[C@@H](O)CC[C@]5(C)[C@H]4CC[C@]3(C)[C@H]1[C@@H]2C` [compound 22, Diosgenin], for which the Ki at hCA I (read-out: hCAI), on hCA IV [4], on hCA II [5] and at hCA IX [6] was over 100 µM throughout.

On to `C[C@H](CCC(=O)O)[C@H]1CC[C@H]2[C@@H]3[C@@H](O)C[C@@H]4C[C@H](O)CC[C@]4(C)[C@H]3CC[C@]12C` [compound 5, Ursodeoxycholic acid], for which the Ki on hCA I (read-out: hCAI) was 95.9 µM; at hCA IV [1] (read-out: hCA IV), over 100 µM; at hCA II [2] (read-out: hCA II), 71.4 µM; at hCA IX [3] (read-out: hCA IX), 73.1 µM.

With `C[C@H](CCC(=O)O)[C@H]1CC[C@H]2[C@@H]3[C@H](O)[C@H](O)[C@@H]4C[C@H](O)CC[C@]4(C)[C@H]3CC[C@]12C` [compound 9, Hyocholic acid], the Ki was 83.3 µM on hCA I (read-out: hCAI), over 100 µM at hCA IV [1] (read-out: hCA IV), 38.9 µM at hCA II [2] (read-out: hCA II) and 71.9 µM on hCA IX [3] (read-out: hCA IX).

Regarding `C[C@H](CCC(=O)O)[C@H]1CC[C@H]2[C@@H]3CC[C@@H]4C[C@H](O)CC[C@]4(C)[C@H]3C[C@H](O)[C@]12C` [compound 4, Deoxycholic acid], the Ki is over 100 µM on hCA I (read-out: hCAI), 51 µM on hCA II [2] (read-out: hCA II), 55 µM on hCA IX [3] (read-out: hCA IX) and over 100 µM on hCA IV [4].

Consider `CC(C)CCC[C@@H](C)[C@H]1CC[C@H]2[C@@H]3CC=C4C[C@@H](O)CC[C@]4(C)[C@H]3CC[C@]12C` [compound 11, Cholesterol], for which the Ki on hCA I (read-out: hCAI), at hCA IV [4], on hCA II [5] and on hCA IX [6] was over 100 µM throughout.

Regarding `C[C@H](CCC(=O)NCC(=O)O)[C@H]1CC[C@H]2[C@@H]3[C@@H](O)C[C@@H]4C[C@H](O)CC[C@]4(C)[C@H]3CC[C@]12C` [compound 6, Glycoursodeoxycholic acid], the Ki was over 100 µM on hCA I (read-out: hCAI), 78.4 µM at hCA II [2] (read-out: hCA II), 89.9 µM at hCA IX [3] (read-out: hCA IX) and over 100 µM on hCA IV [4].

`C[C@]12CC[C@@H]3c4ccc(O)cc4CC[C@H]3[C@@H]1CC[C@H]2O` [compound 19, α-Estradiol]: the Ki on hCA I (read-out: hCAI) is 87.8 µM; on hCA IV [1] (read-out: hCA IV) it was over 100 µM; on hCA II [2] (read-out: hCA II), 40.4 µM; on hCA IX [3] (read-out: hCA IX) it was 49.6 µM.

As to `C[C@H](CCC(=O)O)[C@H]1CC[C@H]2[C@@H]3C(=O)C[C@@H]4CC(=O)CC[C@]4(C)[C@H]3CC(=O)[C@]12C` [compound 10, Dehydrocholic acid], the Ki at hCA I (read-out: hCAI) was over 100 µM; on hCA II [2] (read-out: hCA II) it was 57.8 µM; at hCA IX [3] (read-out: hCA IX), 53.9 µM; on hCA IV [4] it was over 100 µM.

Take `CC(=O)[C@H]1CC[C@H]2[C@@H]3CCC4=CC(=O)CC[C@]4(C)[C@H]3[C@H](O)C[C@]12C` [compound 18, 11α-Hydroxyprogesterone]: the Ki at hCA I (read-out: hCAI), at hCA IV [4], at hCA II [5] and at hCA IX [6] was over 100 µM throughout.

With `C[C@H](CCC(=O)O)[C@H]1CC[C@H]2[C@@H]3[C@H](O)C[C@@H]4C[C@H](O)CC[C@]4(C)[C@H]3CC[C@]12C` [compound 1, Chenodeoxycholic acid], the Ki is over 100 µM on hCA I (read-out: hCAI), 53.9 µM on hCA II [2] (read-out: hCA II), 63 µM at hCA IX [3] (read-out: hCA IX) and over 100 µM at hCA IV [4].

For `CC(C)CCC[C@@H](C)[C@H]1CC[C@H]2[C@@H]3CC[C@@H]4C[C@@H](O)CC[C@]4(C)[C@H]3CC[C@]12C` [compound 12, Coprostan-3-ol], the Ki on hCA I (read-out: hCAI), on hCA IV [4], at hCA II [5] and at hCA IX [6] was over 100 µM each time.

Take `C[C@H](CCC(=O)O)[C@H]1CC[C@H]2[C@@H]3C[C@H](O)[C@@H]4C[C@H](O)CC[C@]4(C)[C@H]3CC[C@]12C` [compound 8, Hyodeoxycholic acid]: the Ki is over 100 µM at hCA I (read-out: hCAI), 58.4 µM at hCA II [2] (read-out: hCA II), 67.7 µM at hCA IX [3] (read-out: hCA IX) and over 100 µM on hCA IV [4].
